Experimental data from US4579947A, “Substituted phenylalkylpiperazinylpropyl (ureas or thioureas) useful for treatment of immunological, inflammatory and allergic disorder” (Boehringer Ingelheim Pharmaceuticals, Inc., priority 1984, dated 1986).
Where a name gives a salt, the structure may show the parent alone.

How the values were obtained:
Assay type in all cases: cell-based
[1] = system: human leukocytes (basophils); assay: Inhibition of human leukocyte (basophil) histamine release in vitro (rabbit anti-human IgE); conditions: Table A, 60 minutes at 37° C., Int. = interference with test procedure; for IC50: Leukocyte, 1 h, read-out: Inhibition IC50 (histamine release from human leukocytes (basophils))
Protocol: Separation of Leukocytes: A modification of the method of L. Lichtenstein and A. Osler, J.Exp.Med. 120, 507 (1964) was used. Heparinized human blood (80-100 ml) is mixed with 20 ml of saline (0.2%) containing 0.6 gm of dextrose and 1.2 gm dextran in propylene centrifuge tubes. The mixture is kept at ambient temperature for 60-90 minutes to allow the separation of erythrocytes from the platelet-leukocyte-rich supernate. The supernate is removed and centrifuged for 8 minutes at 110×g in cold. The leukocyte pellet is washed 2× with Tris buffer and finally suspended in 150-180 ml Tris-ACM buffer at 1-2×10^6 cells/ml. 2. Reaction Mixture: The reaction is carried out in 12×75 mm plastic tubes at a total volume of 1.25 ml. The reaction medium includes 0.05 ml rabbit anti-human IgE (the antigen), 0.2 ml of the test compound in water at concentrations ranging from 10-1000 μM, and 1.0 ml of the leukocyte suspension. The reaction mixture is incubated in a 37° C. shaking water bath for 60 minutes. Upon completion of the reaction, the tubes are centrifuged and the supernatants collected. The protein is removed from the supernatants by precipitation with 0.2 ml of 8% perchloric acid. 3. Histamine Assay: Histamine release is measured by the automated fluorometric method of W. Siraganian and W. Hook in Chapter 102 of the Manual of Clinical Immunology, 2nd Edition, Edited by R. Rose and H. Friedman, Published by the American Society for Microbiology, Washington, D.C. 1980. Percent inhibition is calculated as follows: [formula] The concentration which causes a 50 percent inhibition (IC50) of histamine release is interpolated from a plot of percent inhibition versus logarithm of drug concentration.

[2] = system: rat peritoneal mast cells; assay: Inhibition of rat peritoneal mast cell histamine release; conditions: Mast cell, 1 h; Table B; in vitro, sheep anti-rat IgE or ovalbumin, 60 minutes at 37° C.; Int. = interference with test procedure; read-out: Inhibition IC50 (histamine release from rat peritoneal mast cells)
Protocol: Harvest of Peritoneal Mast Cells: After the rats are sacrificed with ether, 20 ml of Minimum Essential Medium (MEM) containing 20 units/ml heparin is injected into the peritoneum. The abdomen is massaged for one minute and the lavage fluid collected. The peritoneal cells are centrifuged at 1800 rpm for 8 minutes in cold. After two washes with Tris A buffer, the cells are resuspended in Tris ACM buffer at 2-33 10^6 cells/ml. 2. Reaction Mixture: The reaction is carried out in 12×75 mm plastic tubes at a total volume of 1.25 ml. The reaction mixture includes 0.5 ml (10-1000 μg) sheep anti-rat IgE or ovalbumin, 0.2 ml of the test compound in water at concentrations ranging from 10-1000 μM, 0.5 ml phosphatidylserine solution (20-60 μg to each tube), and 0.5 ml of cell suspension. The reaction mixture is incubated in a 37° C. shaking water bath for 60 minutes. Upon completion of the reaction, the tubes are centrifuged and the supernatants collected. The protein is removed from the supernatants by precipitation with 0.2 ml of 8% perchloric acid. 3. Histamine Assay: Histamine release is measured by the automated fluorometric method of Siraganian, supra. The concentration which causes a 50% inhibition (IC50) of histamine release is computed as in Part A.

[3] = system: isolated guinea pig ileum; assay: Antagonism of histamine-induced contraction of isolated guinea pig ileum; conditions: Cavia porcellus; Table C; histamine final concentration 0.2 μg/ml; read-out: Inhibition IC50 (histamine-induced contraction of isolated guinea pig ileum)
Protocol: The antagonism of the effects of histamine on the contraction of isolated guinea pig ileum by the compounds of formula I can be determined by the procedure of G. Possanza, A. Bauen, and P. Stewart, Int. Arch. Allergy Appl. Immunol., 49, 289 (1975). The degree of inhibition is determined as the difference between the contraction caused by histamine (final concentration 0.2 μg/ml) alone and that seen in the presence of both histamine and the test compound. The inhibitory activity of the test compound is expressed as that concentration of the compound which causes a 50% reduction of the contractile response (IC50).

Structure (SMILES)	IC50 [1] [µM]	IC50 [2] [µM]	IC50 [3] [µM]	Inhibition IC50 (histamine release from human leukocytes (basophils)) [1]
O=C(NCCCN1CCN(Cc2ccc(Cl)cc2)CC1)NC1CCCCC1 [Example 1, 1-{3-[4-(4-Chlorobenzyl)piperazin-1-yl]propyl}-3-cyclohexylurea dihydrochloride]	50	108	0.015	
CNC(=O)NCCCN1CCN(Cc2ccc(Cl)cc2)CC1 [Example 2, 1-{3-[4-(4-Chlorobenzyl)piperazin-1-yl]propyl}-3-methylurea dihydrochloride]	300		0.63	
CCCCCCNC(=O)NCCCN1CCN(Cc2ccc(Cl)cc2)CC1 [Example 4, 1-{3-[4-(4-Chlorobenzyl)piperazin-1-yl]propyl}-3-n-hexylurea dihydrochloride]	8	110	0.05	
O=C(NCCCN1CCN(Cc2ccc(F)cc2)CC1)NC1CCCCC1 [Example 6, 1-{3-[4-(4-Fluorobenzyl)piperazin-1-yl]propyl}-3-cyclohexylurea dihydrochloride monohydrate]	50		0.11	
O=C(NCCCN1CCN(Cc2ccc(Cl)cc2)CC1)Nc1ccccc1 [Example 9, 1-{3-[4-(4-Chlorobenzyl)piperazin-1-yl]propyl}-3-phenylurea]	78	> 1000	0.05	
O=C(NCCCN1CCN(Cc2ccc(Cl)cc2)CC1)Nc1ccc(Cl)cc1 [Example 10, 1-{3-[4-(4-Chlorobenzyl)piperazin-1-yl]propyl}-3-(4-chlorophenyl)urea hydrochloride]	30		0.15	
Cc1ccc(NC(=O)NCCCN2CCN(Cc3ccc(Cl)cc3)CC2)cc1 [Example 11, 1-{3-[4-(4-Chlorobenzyl)piperazin-1-yl]propyl}-3-(4-methylphenyl)urea dihydrochloride monohydrate]	37		0.065	
O=C(NCCCN1CCN(Cc2ccc(Cl)cc2)CC1)Nc1ccc([N+](=O)[O-])cc1 [Example 16, 1-{3-[4-(4-Chlorobenzyl)piperazin-1-yl]propyl}-3-(4-nitrophenyl)urea dihydrochloride]	30		0.018	
O=C(NCCCN1CCCN(Cc2ccc(Cl)cc2)CC1)NC1CCCCC1 [Example 17, 1-{3-[4-(4-Chlorobenzyl)homopiperazin-1-yl]propyl}-3-cyclohexylurea dihydrochloride]	13		0.15	
S=C(NCCCN1CCN(Cc2ccc(Cl)cc2)CC1)NC1CCCCC1 [Example 19, 1-{3-[4-(4-Chlorobenzyl)piperazin-1-yl]propyl}-3-cyclohexylthiourea]	26		0.11	
S=C(NCCCN1CCN(Cc2ccc(Cl)cc2)CC1)Nc1ccccc1 [Example 20, 1-{3-[4-(4-Chlorobenzyl)piperazin-1-yl]propyl}-3-phenylthiourea]	37		0.1	
O=C(NCCCN1CCN(Cc2ccc(Cl)cc2)CC1)NCc1ccccc1 [Example 22, 1-{3-[4-(4-Chlorobenzyl)piperazin-1-yl]propyl}-3-benzylurea dihydrochloride]	112		0.23	
CCCCCCNC(=O)NCCCN1CCN(CCc2ccc(Cl)cc2)CC1 [Example 23, 1-{3-[4-(4-Chlorophenethyl)piperazin-1-yl]propyl}-3-n-hexylurea dihydrochloride]	16		0.02	
CCCCCCNC(=O)NCCCN1CCN(Cc2ccc(Cl)c(C(F)(F)F)c2)CC1.Cl.Cl [Example 26, 1-{3-[4-(3-Trifluoromethyl-4-chlorobenzyl)piperazin-1-yl]propyl}-3-n-hexylurea dihydrochloride]			0.09	Int.
N#Cc1ccc(NC(=O)NCCCN2CCN(CCCc3ccc(Cl)cc3)CC2)cc1 [Example 27, 1-{3-{4-[3-(4-Chlorophenyl)propyl]piperazin-1-yl}propyl}3-(4-cyanophenyl)urea dihydrocyloride monohydrate]	20		0.11	
C=CCNC(=O)NCCCN1CCN(Cc2ccc(Cl)cc2)CC1 [Example 28, 1-{3-[4-(4-Chlorobenzyl)piperazin-1-yl]propyl}-3-allylurea dihydrochloride]	120		0.17	

Next, values leading:

IC50 [1] [µM]	IC50 [2] [µM]	IC50 [3] [µM]	Inhibition IC50 (histamine release from human leukocytes (basophils)) [1]	Structure (SMILES)
50		0.07		CCCCNC(=O)NCCCN1CCN(Cc2ccc(Cl)cc2)CC1 [Example 3, 1-{3-[4-(4-Chlorobenzyl)piperazin-1-yl]propyl}-3-n-butylurea dihydrochloride hemihydrate]
16	210	0.75		CCCCCCCCNC(=O)NCCCN1CCN(Cc2ccc(Cl)cc2)CC1 [Example 5, 1{3-[4-(4-Chlorobenzyl)piperazin-1-yl]propyl}-3-n-octylurea diihydrochloride]
240		0.32		O=C(NCCCN1CCN(Cc2ccccc2)CC1)NC1CCCCC1 [Example 7, 1-{3-(4-Benzylpiperazin-1-yl)propyl]-3-cyclohexylurea dihydrochloride]
400		0.21		O=C(NCCCN1CCN(Cc2ccccc2)CC1)Nc1ccccc1 [Example 8, 1-[3-(4-Benzylpiperazin-1-yl)propyl]-3-phenylurea]
80		0.015		COc1ccc(NC(=O)NCCCN2CCN(Cc3ccc(Cl)cc3)CC2)cc1 [Example 12, 1-{3-[4-(4-Chlorobenzyl)piperazin-1-yl]-propyl}-3-(4-methoxyphenyl)urea hydrochloride]
20		0.06		O=C(NCCCN1CCN(Cc2ccc(Cl)cc2)CC1)Nc1ccc(F)cc1 [Example 15, 1-{3-[4-(4-Chlorobenzyl)piperazin-1-yl]propyl}-3-(4-fluorophenyl)urea dihydrochloride monohydrate]
15		0.55		O=C(NCCCN1CCCN(Cc2ccc(Cl)cc2)CC1)Nc1ccccc1 [Example 18, 1-{3-[4-(4-Chlorobenzyl)homopiperazin-1-yl]propyl}-3-phenylurea dihydrochloride]
		0.08	Int.	CCCCCCNC(=S)NCCCN1CCN(Cc2ccc(Cl)cc2)CC1 [Example 21, 1-{3-[4-(4-Chlorobenzyl)piperazin-1-yl]propyl}-3-n-hexylthiourea dihydrochloride hemihydrate]
81	150	0.008		N#Cc1ccc(NC(=O)NCCCN2CCN(Cc3ccc(Cl)cc3)CC2)cc1 [Example 24, 1-{3-[4-(4-Chlorobenzyl)piperazin-1-yl]propyl}-3-(4-cyanophenyl)urea dihydrochloride monohydrate]
115		0.02		CC(=O)c1ccc(NC(=O)NCCCN2CCN(Cc3ccc(Cl)cc3)CC2)cc1 [Example 29, 1-{3-[4-(4-Chlorobenzyl)piperazin-1-yl]propyl}-3-(4-acetylphenyl)urea dihydrochloride dihydrate]
35				CCOc1ccc(NC(=O)NCCCN2CCN(Cc3ccc(Cl)cc3)CC2)cc1 [Example 30, 1-{3-[4-(4-Chlorobenzyl)piperazin-1-yl]propyl}-3-(4-ethoxyphenyl)urea dihydrochloride]
